# Like-named read-outs stand apart in the source and are kept apart here.
# Key:
# Human recombinant Top1 = target: T1, Human recombinant Top1 (Homo sapiens, UniProt P11387); assay: Topoisomerase 1-mediated DNA cleavage reactions (B), 117-bp DNA oligonucleotide; type: biochemical; design: key to Top1 inhibitory activity (level): 0, no detectable activity; +, weak activity; ++, similar activity to compound 33; +++, greater activity than 33; ++++, equipotent to 32; Ambiguous scores (e.g., between two values) are designated with parentheses (e.g., ++(+) would be between ++ and +++); key to Top1 (compound-induced DNA cleavage due to Top1 inhibition): 0, no detectable activity; +, weak activity; ++, similar activity to compound 5; +++, greater activity than 34; ++++ , equipotent to 32; The (+) ranking indicates the activity lies between two given values; conditions: Table 5; for Top1 inhibitory activity (level): relative to compounds 32 and 33; for Top1 (compound-induced DNA cleavage due to Top1 inhibition): semiquantitative scale relative to 1 μM camptothecin (32) or MJ-III-65 (34)
# T1 construct: made in house
# T1 sequence (P11387 1-765): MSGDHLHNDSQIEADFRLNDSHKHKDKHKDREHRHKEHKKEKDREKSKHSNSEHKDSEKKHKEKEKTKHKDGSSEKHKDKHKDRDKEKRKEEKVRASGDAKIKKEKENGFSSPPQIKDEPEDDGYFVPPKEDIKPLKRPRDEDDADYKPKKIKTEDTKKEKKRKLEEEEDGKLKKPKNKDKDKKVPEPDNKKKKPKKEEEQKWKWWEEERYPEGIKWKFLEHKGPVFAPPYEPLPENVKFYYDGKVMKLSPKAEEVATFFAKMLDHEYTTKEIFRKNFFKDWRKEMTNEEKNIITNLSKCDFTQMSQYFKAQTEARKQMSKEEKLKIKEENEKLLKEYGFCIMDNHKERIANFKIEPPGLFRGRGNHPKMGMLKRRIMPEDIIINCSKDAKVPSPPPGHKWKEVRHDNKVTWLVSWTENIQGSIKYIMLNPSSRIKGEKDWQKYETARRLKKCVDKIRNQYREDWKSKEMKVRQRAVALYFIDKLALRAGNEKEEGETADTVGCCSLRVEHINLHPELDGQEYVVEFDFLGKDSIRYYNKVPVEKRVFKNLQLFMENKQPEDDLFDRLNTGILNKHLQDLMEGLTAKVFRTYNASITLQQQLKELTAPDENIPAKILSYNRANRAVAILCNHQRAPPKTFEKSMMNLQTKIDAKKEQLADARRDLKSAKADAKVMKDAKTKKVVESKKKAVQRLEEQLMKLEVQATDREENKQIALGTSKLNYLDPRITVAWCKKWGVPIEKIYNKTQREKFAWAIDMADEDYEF
# Method: Human recombinant Top1 was purified from baculovirus as described in Bailly, C. Curr. Med. Chem. 2000, 7, 39-58. DNA cleavage reactions were prepared as previously reported with the exception of the DNA substrate in Saltz, et al. Oncologist 1997, 2, 402-409.
# Approximately 2 nM radiolabeled DNA substrate was incubated with recombinant Top1 in 20 μL of reaction buffer [10 mM Tris-HCl (pH 7.5), 50 mM KCl, 5 mM MgCl2, 0.1 mM EDTA, and 15 μg/mL BSA] at 25° C. for 20 min in the presence of various concentrations of compounds. […] Aliquots of each reaction mixture were subjected to 20% denaturing PAGE. Gels were dried and visualized using a phosphoimager and ImageQuant software (Molecular Dynamics).
# All of the new indenoisoquinoline derivatives with C-2 side chains were tested in Top1-mediated DNA cleavage assays. For this purpose, a ^32P 3′-end labeled 117-bp DNA fragment was incubated with Top1 and four 10-fold dilutions starting from 100 μM of a tested compound. The DNA fragments were separated on 20% PAGE denaturing gels. The Top1 inhibitory activities were assigned on the basis of the visual inspection of the number and intensities of the gel bands corresponding to Top1-mediated DNA cleavage fragments. […] Ambiguous scores (e.g., between two values) are designated with parentheses (e.g., ++(+) would be between ++ and +++).
# CNS SF-539 = assay: COMPARE screening (NCI human cancer cell line screen), cytotoxicity GI50; type: cell-based; conditions: Homo sapiens, CNSSF-539, 48 h, read-out: Cytotoxicity (GI50) CNS SF-539
# In short: (§1)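 Sulforhodamine B read-out after 48 h exposure over five log concentrations (0.01-100 μM) in the NCI 60-cell-line panel. GI50 derived from percentage growth, as OD ratio to control, versus log10 concentration.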
# renal SN12C = assay: as above; type: cell-based; conditions: Homo sapiens, SN12C, 48 h, read-out: Cytotoxicity (GI50) renal SN12C
# In short: as §1
# prostate DU-145 = assay: as above; type: cell-based; conditions: Homo sapiens, DU-145, 48 h, read-out: Cytotoxicity (GI50) prostate DU-145
# In short: as §1
# ovarian OVCAR-3 = assay: as above; type: cell-based; conditions: Homo sapiens, OVCAR-3, 48 h, read-out: Cytotoxicity (GI50) Ovarian OVCAR-3
# In short: as §1
# lung HOP-62 = assay: as above; type: cell-based; conditions: Homo sapiens, HOP-62, 48 h, read-out: Cytotoxicity (GI50) lung HOP-62
# In short: as §1
# colon HCT-116 = assay: as above; type: cell-based; conditions: Homo sapiens, HCT-116, 48 h, read-out: Cytotoxicity (GI50) Colon HCT-116
# In short: as §1
# melanoma UACC-62 = assay: as above; type: cell-based; conditions: Homo sapiens, UACC-62, 48 h, read-out: Cytotoxicity (GI50) melanoma UACC-62
# In short: as §1
# recombinant TDP1 = recombinant TDP1 (Homo sapiens, UniProt Q9NUW8); assay: Gel-based assay measuring the inhibition of recombinant TDP1; type: biochemical; conditions: for IC50: Table 5, determined in duplicate
# Chain of recombinant TDP1 (Q9NUW8 whole entry): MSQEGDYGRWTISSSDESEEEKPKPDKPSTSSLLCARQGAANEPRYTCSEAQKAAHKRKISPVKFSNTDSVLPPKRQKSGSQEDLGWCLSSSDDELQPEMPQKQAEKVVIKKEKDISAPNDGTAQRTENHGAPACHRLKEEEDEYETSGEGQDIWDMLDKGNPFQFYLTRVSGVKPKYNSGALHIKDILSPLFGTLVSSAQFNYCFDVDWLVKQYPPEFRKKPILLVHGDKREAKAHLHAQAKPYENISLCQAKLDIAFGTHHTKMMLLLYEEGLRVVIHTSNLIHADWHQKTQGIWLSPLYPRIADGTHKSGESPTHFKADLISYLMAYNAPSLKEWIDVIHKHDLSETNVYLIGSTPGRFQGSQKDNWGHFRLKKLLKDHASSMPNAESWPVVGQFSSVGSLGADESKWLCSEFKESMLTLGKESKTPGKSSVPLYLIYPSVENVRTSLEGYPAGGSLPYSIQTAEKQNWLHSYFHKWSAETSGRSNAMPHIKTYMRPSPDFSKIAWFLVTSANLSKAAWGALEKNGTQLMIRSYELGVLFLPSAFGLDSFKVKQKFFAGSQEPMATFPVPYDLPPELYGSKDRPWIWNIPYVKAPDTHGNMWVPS
# Method: A 5′-[^32P]-labeled single-stranded DNA oligonucleotide containing a 3′-phosphotyrosine (N14Y) was generated as described by Dexheimer et al. (J. Med. Chem. 2009, 52, 7122-7131). The DNA substrate was then incubated with 5 μM recombinant TDP1 in the absence or presence of inhibitor for 15 min at room temperature in a buffer containing 50 mM Tris HCl, pH 7.5, 80 mM KCl, 2 mM EDTA, 1 mM DTT, 40 μg/ml BSA and 0.01% Tween-20. Reactions were terminated by the addition of 1 volume of gel loading buffer [99.5% (v/v) formamide, 5 mM EDTA, 0.01% (w/v) xylene cyanol, and 0.01% (w/v) bromophenol blue]. Samples were subjected to a 16% denaturing PAGE and gels were exposed after drying to a PhosphorImager screen (GE Healthcare). Gel images were scanned using a Typhoon 8600 (GE Healthcare) and densitometric analyses were performed using the ImageQuant software (GE Healthcare).
# The TDP1 inhibitory activities of the O-2-substituted indenoisoquinolines were measured by determining their abilities to inhibit the hydrolysis of the phosphodiester linkage between tyrosine and the 3′-end of a DNA oligonucleotide substrate and thus prevent the generation of an oligonucleotide with a free 3′-phosphate (N14P, Scheme 13). Therefore, the disappearance of the gel band for N14P indicates TDP1 inhibition.
# Tyrosyl-DNA phosphodiesterase 1 (TDP1) is a DNA repair enzyme that repairs cytotoxic DNA damage induced by Top1 inhibitors.
# breast MCF-7 = assay: NCI60 antiproliferative activity, cytotoxicity GI50; type: cell-based, human; conditions: Homo sapiens, MCF7, 48 h, read-out: Cytotoxicity (GI50) breast MCF-7
# Method: Selected compounds were tested for antiproliferative activity in the National Cancer Institute's developmental therapeutics assay 60 cell line screen (NCI60). The cells were incubated with the tested compounds at 100, 10, 1, 0.1, and 0.01 μM concentrations for 48 h before treatment with sulforhodamine B dye. Optical densities were recorded, and their ratios relative to that of the control were plotted as percentage growth against the log 10 of the tested compound concentrations.
# [1] = tested on: all human cancer cell lines successfully tested; assay: NCI screen mean graph midpoint (MGM) for growth inhibition; type: cell-based; conditions: Table 6; for GI50's against various cell lines (in words): NCI60 cell lines; for MGM (mean GI50 across cell lines): all human cancer cell lines successfully tested, range 10^−8 to 10^−4 molar, with standard error
# In short: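 NCI60 panel cells exposed to compound at 100, 10, 1, 0.1 and 0.01 μM for 48 h, then sulforhodamine B staining. Percentage growth versus control plotted against log concentration; MGM is the midpoint across all lines tested.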
# [2] = read-out: TDP1 (IC50, semiquantitative scale)
# [3] = read-out: TDP1 inhibitory activity (potency score)
Top1 inhibitory activity (level) (Human recombinant Top1),Top1 (compound-induced DNA cleavage due to Top1 inhibition) (Human recombinant Top1),TDP1 inhibitory activity (in words) (recombinant TDP1),IC50 (recombinant TDP1; [2]) [nM],IC50 (recombinant TDP1; [3]) [nM],melting point,Structure (SMILES),GI50 (CNS SF-539) [nM],GI50 (renal SN12C) [nM],GI50 (prostate DU-145) [nM],GI50 (ovarian OVCAR-3) [nM],GI50 (lung HOP-62) [nM],GI50 (colon HCT-116) [nM],GI50 (melanoma UACC-62) [nM],GI50 (breast MCF-7) [nM],GI50's against various cell lines (in words) [1],MGM (mean GI50 across cell lines) [1] [nM]
++,++,–,1000 to 37000,1000 to 37000,–,"COc1cc2c(=O)n(CCCN3CCOCC3)c3c(c2cc1OCCCN1CCCC1)C(=O)c1cc2c(cc1-3)OCO2 [Compound 28, 3-Methoxy-6-(3-morpholinopropyl)-2-(3-(pyrrolidin-1-yl)propoxy)-5H-[1,3]dioxolo[4′,5′:5,6]indeno[1,2-c]isoquinoline-5,12(6H)-dione]",200,200,40,1200,200,200,300,100,–,600 ± 370
–,–,–,37000 to 111000,–,> 350 °C,"COc1cc2c(=O)n(CCCN3CCOCC3)c3c(c2cc1OCCCN)C(=O)c1cc2c(cc1-3)OCO2 [Compound 22, 2-(3-Aminopropoxy)-3-methoxy-6-(3-morpholinopropyl)-5H-[1,3]dioxolo [4′,5′:5,6]indeno[1,2-c]isoquinoline-5,12(6H)-dione]",200,300,300,400,300,200,300,200,submicromolar,500 ± 92
+ or ++,+,no detectable TDP1 inhibitory activity,> 111000,–,199 to 200 °C (dec.),"C=CCOc1cc2c3c(n(CCCN4CCOCC4)c(=O)c2cc1OC)-c1cc2c(cc1C3=O)OCO2 [Compound 20, 2-(Allyloxy)-3-methoxy-6-(3-morpholinopropyl)-5H-[1,3]dioxolo[4′,5′:5,6]indeno [1,2-c]isoquinoline-5,12(6H)-dione]",10,< 10,< 10,300,< 10,10,< 10,< 10,submicromolar,100 ± 35

# The remaining lines, values behind:
Structure (SMILES),Top1 inhibitory activity (level) (Human recombinant Top1),Top1 (compound-induced DNA cleavage due to Top1 inhibition) (Human recombinant Top1),TDP1 inhibitory activity (in words) (recombinant TDP1),IC50 (recombinant TDP1; [2]) [nM],IC50 (recombinant TDP1; [3]) [nM],melting point,GI50 (CNS SF-539) [nM],GI50 (renal SN12C) [nM],GI50 (prostate DU-145) [nM],GI50 (ovarian OVCAR-3) [nM],GI50 (lung HOP-62) [nM],GI50 (colon HCT-116) [nM],GI50 (melanoma UACC-62) [nM],GI50 (breast MCF-7) [nM],GI50's against various cell lines (in words) [1],MGM (mean GI50 across cell lines) [1] [nM]
"COc1cc2c(=O)n(CCCN3CCOCC3)c3c(c2cc1OCCCN1CCOCC1)C(=O)c1cc2c(cc1-3)OCO2 [Compound 25, 3-Methoxy-2-(3-morpholinopropoxy)-6-(3-morpholinopropyl)-5H-[1,3]dioxolo [4′,5′:5,6]indeno[1,2-c]isoquinoline-5,12(6H)-dione]",+++,+++,no TDP1 inhibitory activity was observed,> 111000,–,–,100,100,20,700,30,100,200,20,submicromolar,200 ± 28
"COc1cc2c(=O)n(CCCN3CCOCC3)c3c(c2cc1OCCCN1CCCCC1)C(=O)c1cc2c(cc1-3)OCO2 [Compound 27, 3-Methoxy-6-(3-morpholinopropyl)-2-(3-(piperidin-1-yl)propoxy)-5H-[1,3]dioxolo [4′,5′:5,6]indeno[1,2-c]isoquinoline-5,12(6H)-dione]",+++,+++,–,12000 to 37000,12000 to 37000,–,30,400,200,5400,300,1100,9600,40,low micromolar,1600 ± 230
"COC(=O)COc1cc2c3c(n(CCCN4CCOCC4)c(=O)c2cc1OC)-c1cc2c(cc1C3=O)OCO2 [Compound 29, Methyl 2-((3-Methoxy-6-(3-morpholinopropyl)-5,12-dioxo-6,12-dihydro-5H-[1,3]dioxolo[4′,5′:5,6]indeno[1,2-c]isoquinolin-2-yl)oxy)acetate]",+ or ++,++,–,> 111000,–,–,100,800,900,5800,100,1100,1000,400,low micromolar,3100 ± 1200

# From patent US9796753B2, “N-substituted indenoisoquinolines and syntheses thereof” (Purdue Research Foundation, priority 2005, dated 2017)
